Assays:
[1] = target: human 20S proteasome (Homo sapiens, UniProt P28072+P28074+Q99436); assay: Proteasome Inhibition Kinetics (enzyme progress curves); assay type: biochemical; conditions: human 20S proteasome 0.25 nM activated with 0.01% SDS, 37° C.; half-life determined from koff; read-out: dissociation half-life t1/2
Method: Enzyme kinetic parameters including dissociation constants and half lives were determined by analysis of enzyme progress curves as follows:
Proteasome inactivation measurements were obtained by monitoring individual progress curves for the hydrolysis of the site-specific fluorogenic 7-amido-4-methylcoumarin (AMC)-labeled peptide substrates (β5, Suc-LLVY-AMC; β2, Z-VLR-AMC, and β1, Z-LLE-AMC) at different inhibitor concentrations. Cleavage of the fluorogenic peptide was continuously monitored as a change in the fluorescence emission at 460 nm (λex=360 nm) and plotted as a function of time. All assays were performed in cuvettes with 2 mL of 50 mM HEPES (pH 7.5), 0.5 mM EDTA, at 37±0.2° C., and with continuous stirring. The concentrations of substrates varied from 10 to 25 μM (<½ KM). The concentration of human 20S proteasome was 0.25 nM and was activated with 0.01% SDS. The rate constant, kobs, describing the conversion from the initial velocity to the steady state velocity, were estimated by nonlinear least-squares regression analysis of the individual progress curves using the equation for time-dependent or slow-binding inhibition:
[formula] where F is fluorescence, vi and vs are the initial and steady state velocities of the reaction in the presence of inhibitor, and t is time. A plot of kobs as a function of [I] was made to obtain kon from the slope of the linear fit of the data. The apparent dissociation constant, K^appii, was determined by nonlinear least-fit of the fractional velocity, vs/vo, as a function of [I], were vs is the steady state value obtained from the time-dependent or slow-binding equation and vo is the initial velocity in the absence of inhibitor: […]
The dissociation constant Ki, was calculated from the apparent Ki using the following expression: […]
The off rate, koff, was mathematically calculated from the above determined parameters using the following relationship:
The half-life was then determined from the koff value using the following relationship: […]

[2] = target: T1, human 20S proteasome (Homo sapiens, UniProt P28074); assay: 20S Proteasome Assay; assay type: biochemical; conditions: Ac-WLA-AMC substrate 15 μM, human PA28 activator 12 nM, human 20S proteasome 0.25 nM, 37° C., pH7.4
T1 construct: purchased Boston Biochem

Row | SMILES | residence time [1] | IC50 [2]
1 | CN1C(=O)Cc2cc(S(=O)(=O)N[C@@H](Cc3ccccc3)C(=O)N[C@@H](CC3CCC3)B(O)O)ccc21 [Compound 40, {(1R)-2-cyclobutyl-1-[((2S)-2-{[(1-methyl-2-oxo-2,3-dihydro-1H-indol-5-yl)sulfonyl]amino}-3-phenylpropanoyl)amino]ethyl}boronic acid] |  | < 50 nM
2 | O=C(N[C@@H](CC1CCC1)B(O)O)[C@H](Cc1ccccc1)NS(=O)(=O)c1ccc(Oc2ccccn2)cc1 [Compound 41, ((1R)-2-cyclobutyl-1-{[(2S)-3-phenyl-2-({[4-(pyridin-2-yloxy)phenyl]sulfonyl}amino)propanoyl]amino}ethyl)boronic acid] | < 10 min | < 50 nM
3 | C[C@H](O)[C@H](NS(=O)(=O)c1ccc(Oc2ccccc2)nc1)C(=O)N[C@@H](CC1CCC1)B(O)O [Compound 42, {(1R)-2-cyclobutyl-1-[((2S)-3-hydroxy-2-{[(6-phenoxypyridin-3-yl)sulfonyl]amino}butanoyl)amino]ethyl}boronic acid] |  | 50 to 150 nM
4 | O=C(N[C@@H](CC1CCC1)B(O)O)[C@H](Cc1ccccc1)NS(=O)(=O)c1ccc(Oc2ccncc2)cc1 [Compound 43, ((1R)-2-cyclobutyl-1-{[(2S)-3-phenyl-2-({[4-(pyridin-4-yloxy)phenyl]sulfonyl}amino)propanoyl]amino}ethyl)boronic acid] | < 10 min | < 50 nM
5 | Cc1nc(-c2cccc(S(=O)(=O)N[C@@H](Cc3ccccc3)C(=O)N[C@@H](CC3CCC3)B(O)O)c2)cs1 [Compound 44, ((1R)-2-cyclobutyl-1-{[(2S)-2-({[3-(2-methyl-1,3-thiazol-4-yl)phenyl]sulfonyl}amino)-3-phenylpropanoyl]amino}ethyl)boronic acid] |  | < 50 nM
6 | O=C(N[C@@H](CC1CCC1)B(O)O)[C@H](Cc1ccccc1)NS(=O)(=O)c1ccc(Oc2cccnc2)cc1 [Compound 45, ((1R)-2-cyclobutyl-1-{[(2S)-3-phenyl-2-({[4-(pyridin-3-yl-oxy)phenyl]sulfonyl}amino)propanoyl]amino}ethyl)boronic acid] | < 10 min | < 50 nM
7 | C[C@H](O)[C@H](NS(=O)(=O)c1ccc2c(c1)N(C)CCO2)C(=O)N[C@@H](CC1CCC1)B(O)O [Compound 46, {(1R)-2-cyclobutyl-1-[((2S)-3-hydroxy-2-{[(4-methyl-3,4-dihydro-2H-1,4-benzoxazin-6-yl)sulfonyl]amino}butanoyl)amino]ethyl}boronic acid] |  | 50 to 150 nM
8 | O=C(N[C@@H](CC1CCC1)B(O)O)[C@H](Cc1ccccc1)NS(=O)(=O)c1cccc2cnccc12 [Compound 47, [(1R)-2-cyclobutyl-1-({(2S)-2-[(isoquinolin-5-ylsulfonyl)amino]-3-phenylpropanoyl}amino)ethyl]boronic acid] |  | 50 to 150 nM
9 | O=C(N[C@@H](CC1CCC1)B(O)O)[C@H](Cc1ccccc1)NS(=O)(=O)c1ccc2ncsc2c1 [Compound 48, [(1R)-1-({(2S)-2-[(1,3-benzothiazol-6-ylsulfonyl)amino]-3-phenylpropanoyl}-amino)-2-cyclobutylethyl]boronic acid] |  | < 50 nM

The remaining lines, values ahead:

Row | residence time [1] | IC50 [2] | SMILES
10 | < 10 min | < 50 nM | O=C(N[C@@H](CC1CCC1)B(O)O)[C@H](Cc1ccccc1)NS(=O)(=O)c1ccc2ccccc2c1 [Compound 1, [(1R)-2-cyclobutyl-1-({(2S)-2-[(2-naphthylsulfonyl)amino]-3-phenylpropanoyl}amino)ethyl]boronic acid]
11 | 10 to 60 min | < 50 nM | O=C(N[C@@H](Cc1ccccc1)C(=O)N[C@@H](CC1CCC1)B(O)O)c1cccnc1Oc1ccccc1 [Compound 2, {(1R)-2-cyclobutyl-1-[((2S)-2-{[(2-phenoxypyridin-3-yl)carbonyl]amino}-3-phenylpropanoyl)amino]ethyl}boronic acid]
12 | 10 to 60 min | < 50 nM | O=C(N[C@@H](Cc1ccccc1)C(=O)N[C@@H](CC1CCC1)B(O)O)c1cc(Cl)ccc1Cl [Compound 6, [(1R)-2-cyclobutyl-1-({(2S)-2-[(2,5-dichlorobenzoyl)amino]-3-phenylpropanoyl}amino)ethyl]boronic acid]
13 | 10 to 60 min | < 50 nM | O=C(N[C@@H](Cc1ccccc1)C(=O)N[C@@H](CC1CCC1)B(O)O)c1cnccn1 [Compound 17, [(1R)-2-cyclobutyl-1-({(2S)-3-phenyl-2-[(pyrazin-2-ylcarbonyl)amino]propanoyl}amino)ethyl]boronic acid]
14 | < 10 min | < 50 nM | CN1CCOc2ccc(S(=O)(=O)N[C@@H](Cc3ccccc3)C(=O)N[C@@H](CC3CCC3)B(O)O)cc21 [Compound 20, {(1R)-2-cyclobutyl-1-[((2S)-2-{[(4-methyl-3,4-dihydro-2H-1,4-benzoxazin-6-yl)sulfonyl]amino}-3-phenylpropanoyl)amino]ethyl}boronic acid]
15 | < 10 min | < 50 nM | O=C(N[C@@H](CC1CCC1)B(O)O)[C@H](Cc1ccccc1)NS(=O)(=O)c1cc(Cl)ccc1Cl [Compound 35, {(1R)-2-cyclobutyl-1-[((2S)-2-{[(2,5-dichlorophenyl)sulfonyl]amino}-3-phenylpropanoyl)amino]ethyl}boronic acid]
16 | < 10 min | < 50 nM | O=C(N[C@@H](CC1CCC1)B(O)O)[C@H](Cc1ccccc1)NS(=O)(=O)c1ccc(-c2cnco2)cc1 [Compound 36, ((1R)-2-cyclobutyl-1-{[(2S)-2-({[4-(1,3-oxazol-5-yl)phenyl]sulfonyl}amino)-3-phenylpropanoyl]amino}ethyl)boronic acid]
17 |  | < 50 nM | O=C(N[C@@H](Cc1ccccc1)C(=O)N[C@@H](CC1CCC1)B(O)O)c1ccc(Oc2ccccc2)nc1 [Compound 39, {(1R)-2-cyclobutyl-1-[((2S)-2-{[(6-phenoxypyridin-3-yl)carbonyl]amino}-3-phenylpropanoyl)amino]ethyl}boronic acid]

— patent US9771381B2, “Derivatives of 1-amino-2-cyclobutylethylboronic acid” (Millennium Pharmaceuticals, Inc., priority 2008, dated 2017)
